Legend:
[1] = target: recombinant DYRK1A kinase (Homo sapiens (Human), UniProt Q13627); assay: DYRK1A kinase assay (Ser/Thr 18 peptide Z-lyte FRET assay); assay type: biochemical; settings: recombinant DYRK1A 0.25 µg/mL, ATP 15 µM, Ser/Thr peptide 18 4 µM, one hour at room temperature; table head prints EC50, method says IC50
Procedure, shortened: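 Z-lyte FRET format: 1 h room-temperature reaction of 15 µM ATP, 4 µM Ser/Thr 18 peptide and 0.25 µg/mL recombinant human DYRK1A, in duplicate over 11 compound concentrations up to 10 µM. IC50 was derived by non-linear regression of percent phosphorylation calculated from coumarin/fluorescein emission ratios.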

[2] = test system: Tau phosphorylation at Thr212 (pThr212) in HEK293T cells transfected with DYRK1A and MAPT; assay: phosphoTau (Thr212) AlphaLISA tau phosphorylation cell assay; assay type: cell-based; settings: HEK-293T, HEK293T cells transiently transfected with human DYRK1A and MAPT, compound treatment 18-24 hours, read-out: pTau (Thr212) EC50
Method: Representative compounds were screened using the assay procedure for tau phosphorylation activity described below.
HEK293T cells (ATCC, CRL3216) cultured in DMEM (Thermo Fisher Scientific, 10566024) supplemented with 10% FBS (Corning, 35-011-CV) and Penicillin/Streptomycin (Thermo Fisher Scientific, 15140163) were seeded in a 75 cm^2 flask at 8.1 × 10^6 cells/flask. The HEK293T cells were then transiently transfected with 5 µg DYRK1A (NM_001396) human untagged clone (OriGene, SC314641) and 2.5 µg MAPT (441 a.a. Tau gene) (NM_005910) human untagged clone (OriGene, TP313312) using Lipofectamine 3000 (Thermo Fisher Scientific, L30000015) and incubated for 20-30 hours in a humidified incubator at 37° C. and 5% CO^2. Post-incubation, HEK293T cells transfected with the DYRK1A and MAPT expression vectors were harvested and seeded in BioCoat poly-D lysine coated 96-well plates (Corning, 354461) at 3 × 10^4 cells/well.
The above synthesized compounds were screened using the cell assay procedure to assess decreased Tau phosphorylation at Thr212 (pThr212) described below.
Each compound was dissolved in DMSO (Sigma-Aldrich, D8418-100 mL) as a 10 mM stock. 10 mM stocks were serially diluted 1:3, 10-point dose-response curve and added to the cells with a final concentration ranging from 20 µM to 1.1 nM. Cells were treated with compounds in duplicate and incubated for 18-24 hours in a humidified incubator at 37° C. and 5% CO^2.
Following the overnight compound treatment, cells were lysed with 1X Alpha Surefire Ultra Lysis Buffer (Perkin Elmer, ALSU-LB-100ML) complemented with 1X Halt Phosphatase Inhibitor Cocktail (Thermo Fisher Scientific, 78427) and 1X Halt Protease Inhibitor Cocktail (Thermo Fisher Scientific, 78438). Lysates were spun down at 12,000 g for 10 min to remove any cellular debris and 5 µL of lysates were dispensed into a 384-well Opti-Plate (Perkin Elmer, 6007290) for the measurement of Tau phosphorylation in the phosphoTau (Thr212) AlphaLISA assay. Donor antibody, biotinylated HT7Tau (Thermo Fisher Scientific, MN1000B), and acceptor antibody, pThr212Tau (Thermo Fisher Scientific, 44740G) were both added to the cell lysates at a final concentration of 3 nM and incubated for 1 hour at room temperature. Following incubation of the lysates with the donor and acceptor antibodies, anti-rabbit IgG(Fc specific) AlphaLISA acceptor beads (Perkin Elmer, AL104C) were added at a 10 ug/mL final concentration and incubated for 1 hour at room temperature protected from light. Lastly, AlphaScreen streptavidin donor beads (PerkinElmer, 6760002) were added at 40 ug/mL final concentration and incubated for 1 hour at room temperature protected from light. Plates were read at Ex= […], and Em=615 nm on the EnVision Multilabel Plate Reader (Perkin Elmer)
phospho-Tau (Thr212) AlphaLISA signal was used to plot, draw the curve fitting, and determine each compound’s EC50 in Prism (GraphPad).

EC50 [1]	Structure (SMILES)	EC50 [2]
13 nM	FC1(CNc2ncc3c(-c4cnc5nccn5c4)ccn3n2)COC1 [Compound 228, N-((3 -Fluorooxetan-3-yl)methyl)-5-(imidazo [1,2-a]pyrimidin-6-yl)pyrrolo [2,1-f][1,2,4]triazin-2-amine]	292 nM
11 nM	c1cnc2cc(-c3ccn4nc(NC5CC6(COC6)C5)ncc34)ccc2n1 [Compound 1418, 5-(Quinoxalin-6-yl)-N-(2-oxaspiro[3.3]heptan-6-yl)pyrrolo[2,1-f][1,2,4] triazin-2-amine]	212 nM
25 nM	c1cn2cc(-c3ccn4nc(NC5COC5)ncc34)ccc2n1 [Compound 65, 5-(Imidazo[1,2-a]pyridin-6-yl)-N-(oxetan-3-yl)pyrrolo[2,1-f][1,2,4]triazin-2-amine]	828 nM
23 nM	CC(C)(F)CNc1ncc2c(-c3ccc4nccn4c3)ccn2n1 [Compound 3, N-(2-Fluoro-2-methylpropyl)-5-(imidazo[1,2-a]pyridin-6-yl)pyrrolo[2,1-f] [1,2,4]triazin-2-amine]	1840 nM
4 nM	Cc1nc2ccc(-c3ccn4nc(NCC(C)(C)F)ncc34)nc2n1CC(F)F [Compound 1068, N-(2-Fluoro-2-methylpropyl)-5-(3-(2,2-difluoroethyl)-2-methyl-3H-imidazo[4,5-b]pyridin-5-yl)pyrrolo[2,1-f][1,2,4]triazin-2-amine]	159 nM
23 nM	O[C@H]1CC[C@@H](Nc2ncc3c(-c4ccc5nccnc5c4)ccn3n2)CC1 [Compound 1393, cis-4-((5-(Quinoxalin-6-yl)pyrrolo[2,1-f][1,2,4]triazin-2-yl)amino) cyclohexan-1-ol]	718 nM
12 nM	CC(C)(F)CNc1ncc2c(-c3cnc4nccn4c3)ccn2n1 [Compound 216, N-(2-Fluoro-2-methylpropyl)-5-(imidazo[1,2-a]pyrimidin-6-yl)pyrrolo[2,1-f] [1,2,4]triazin-2-amine]	455 nM
5 nM	FC1(F)CCC(Nc2ncc3c(-c4cnc5nccn5c4)ccn3n2)CC1 [Compound 256, N-(4,4-Difluorocyclohexyl)-5-(imidazo[1,2-a]pyrimidin-6-yl)pyrrolo[2,1-f] [1,2,4]triazin-2-amine]	220 nM
11 nM	CO[C@H]1C[C@@H](Nc2ncc3c(-c4ccc5nccn5c4)ccn3n2)C1 [Compound 26, 5-(Imidazo[1,2-a]pyridin-6-yl)-N-(cis-3-methoxycyclobutyl)pyrrolo[2,1-f] [1,2,4]triazin-2-amine]	238 nM
26 nM	COCCn1c(C)nc2ccc(-c3ccn4nc(NC5CCC(F)(F)CC5)ncc34)nc21 [Compound 1179, N-(4,4-Difluorocyclohexyl)-5-(3-(2-methoxyethyl)-2-methyl-3H-imidazo [4,5-b]pyridin-5-yl)pyrrolo[2,1-f][1,2,4]triazin-2-amine]	470 nM
11 nM	CO[C@H]1CC[C@@H](Nc2ncc3c(-c4ccc5nccnc5c4)ccn3n2)CC1 [Compound 1395, N-(cis-4-Methoxycyclohexyl)-5-(quinoxalin-6-yl)pyrrolo[2,1-f][1,2,4] triazin-2-amine]	380 nM
7 nM	c1cn2cc(-c3ccn4nc(NC5CC6(COC6)C5)ncc34)cnc2n1 [Compound 282, 5-(Imidazo[1,2-a]pyrimidin-6-yl)-N-(2-oxaspiro[3.3]heptan-6-yl)pyrrolo[2,1-f][1,2,4]triazin-2-amine]	172 nM
7 nM	CO[C@H]1CC[C@@H](Nc2ncc3c(-c4cnc5nccn5c4)ccn3n2)CC1 [Compound 259, 5-(Imidazo[1,2-a]pyrimidin-6-yl)-N-(cis-4-methoxycyclohexyl)pyrrolo[2,1-f][1,2,4]triazin-2-amine]	150 nM
3 nM	FC1(F)CC2(CC(Nc3ncc4c(-c5cnc6nccn6c5)ccn4n3)C2)C1 [Compound 281, N-(6,6-Difluorospiro[3.3]heptan-2-yl)-5-(imidazo[1,2-a]pyrimidin-6-yl) pyrrolo[2,1-f] [1,2,4]triazin-2-amine]	70 nM
14 nM	C[C@]1(O)CC[C@@H](Nc2ncc3c(-c4ccc5nccnc5c4)ccn3n2)CC1 [Compound 1394, (1s,4s)-1-Methyl-4-((5-(quinoxalin-6-yl)pyrrolo[2,1-f][1,2,4]triazin-2-yl)amino)cyclohexan-1-ol]	709 nM
33 nM	CCOC(=O)[C@H]1CC[C@@H](Nc2ncc3c(-c4ccc5nc(C)n(CC(F)F)c5n4)ccn3n2)CC1 [Compound 1843, Ethyl cis-4-((5-(3-(2,2-difluoroethyl)-2-methyl-3H-imidazo[4,5-b]pyridin-5-yl)pyrrolo[2,1-f][1,2,4]triazin-2-yl)amino)cyclohexane-1-carboxylate]	
393 nM	O[C@H]1CC[C@@H](Nc2ncc3c(-c4ccc5ncccc5c4)ccn3n2)CC1 [Compound 1322, cis-4-((5-(Quinolin-6-yl)pyrrolo[2,1-f][1,2,4]triazin-2-yl)amino)cyclohexan-1-ol]	
9 nM	Cc1nc2ccc(-c3ccn4nc(NC5CCN(C(=O)[C@@H]6CC6(F)F)CC5)ncc34)nc2n1CC(F)F [Compound 1917, (S)-(2,2-Difluorocyclopropyl)(4-((5-(3-(2,2-difluoroethyl)-2-methyl-3H-imidazo[4,5-b]pyridin-5-yl)pyrrolo[2,1-f] [1,2,4]triazin-2-yl)amino)piperidin-1-yl)methanone]	
4 nM	FC(F)(F)O[C@H]1CC[C@@H](Nc2ncc3c(-c4cnc5ncccc5c4)ccn3n2)CC1 [Compound 1798, 5-(1,8-Naphthyridin-3-yl)-N-(cis-4-(trifluoromethoxy)cyclohexyl)pyrrolo [2,1-f][1,2,4]triazin-2-amine]	
6 nM	Cc1nc2ncc(-c3ccn4nc(N[C@H]5CC[C@@H](O)CC5)ncc34)cc2n1CC(F)F [Compound 683, cis-4-((5-(1-(2,2-Difluoroethyl)-2-methyl-1H-imidazo[4,5-b]pyridin-6-yl)pyrrolo[2,1-f][1,2,4]triazin-2-yl)amino)cyclohexan-1-ol]	
4 nM	Cc1nc2ccc(-c3ccn4nc(N[C@@H]5COC[C@H]5O)ncc34)nc2n1CC(F)F [Compound 1906, (3S,4R)-4-((5-(3-(2,2-Difluoroethyl)-2-methyl-3H-imidazo [4,5-b]pyridin-5-yl)pyrrolo[2,1-f][1,2,4]triazin-2-yl)amino)tetrahydrofuran-3-ol]	
4 nM	Cc1nc2ccc(-c3ccn4nc(N[C@H]5CCN(C6COC6)C[C@H]5F)ncc34)nc2n1CC(F)F [Compound 1955, 5-(3-(2,2-Difluoroethyl)-2-methyl-3H-imidazo[4,5-b]pyridin-5-yl)-N-((3R,4S)-3-fluoro-1-(oxetan-3-yl)piperidin-4-yl)pyrrolo[2,1-f][1,2,4]triazin-2-amine]	
5 nM	Cc1nc2ccc(-c3ccn4nc(NC5CCOCC5)ncc34)nc2n1CC(F)F [Compound 1132, 5-(3-(2,2-Difluoroethyl)-2-methyl-3H-imidazo[4,5-b]pyridin-5-yl)-N-(tetrahydro-2H-pyran-4-yl)pyrrolo[2,1-f][1,2,4]triazin-2-amine]	
170 nM	CC(C)(F)CNc1ncc2c(-c3cnc4ncc(Cl)n4c3)ccn2n1 [Compound 287, 5-(3-Chloroimidazo[1,2-a]pyrimidin-6-yl)-N-(2-fluoro-2-methylpropyl) pyrrolo[2,1-f] [1,2,4]triazin-2-amine]	
